The values below come from patent US20260151425A1, “COMPOSITIONS AND METHODS OF USE THEREOF” (SYNEDGEN, INC., priority 2020, published 2026).

Like-named read-outs stand apart in the source and are kept apart here.

Experiment [1] deals with M. avium complex NTM 0813. The experiment can be described thus: MIC of CF NTM clinical isolates. Format: cell-based. The settings on record: for CLSI clinical breakpoint category: NTM 0813; for MIC: Mycobacterium avium, M. avium complex NTM 0813, read-out: MIC.
The subject of experiment [2] is M. abscessus subsp. abscessus NTM 0082. The experiment can be described thus: MIC of CF NTM clinical isolates. Particulars: for CLSI clinical breakpoint category: NTM 0082; for MIC: Mycobacteroides abscessus, M. abscessus subsp. abscessus NTM 0082, read-out: MIC. Format: cell-based.
For experiment [3], the system named is M. avium complex NTM 0260. The experiment can be described thus: MIC of CF NTM clinical isolates. In kind it is cell-based. Particulars: for CLSI clinical breakpoint category: NTM 0260; for MIC: Mycobacterium avium, M. avium complex NTM 0260, read-out: MIC.
Experiment [4] concerns M. abscessus subsp. bolletii NTM 0003. The experiment can be described thus: MIC of CF NTM clinical isolates. Format: cell-based. Particulars: for CLSI clinical breakpoint category: NTM 0003; for MIC: Mycobacteroides abscessus, M. abscessus subsp. bolletii NTM 0003, read-out: MIC.
In experiment [5] the test system is MABSC biofilm. The experiment can be described thus: 2D MBEC checkerboard assay, antibiotic potentiation in biofilm. Particulars: for Fold Change: MBEC alone vs MBEC with PAAG 128 μg/mL; for MBEC: antibiotic alone; for MBEC with PAAG: antibiotic with PAAG at half of its MBEC (128 μg/mL). In kind it is cell-based, Mycobacterium abscessus complex. The protocol: (§1) PAAG synergy with conventional antibiotics was determined by 2D checkerboard analysis. PAAG's antimicrobial activity and antibiotic potentiation in a biofilm were determined by minimum biofilm eradication concentration (MBEC) and 2D MBEC checkerboard assays to determine antibiotic potentiation with PAAG within a biofilm.

Experiment [6] concerns MABSC NTM 0082. The experiment can be described thus: 2D checkerboard analysis, antibiotic MIC with PAAG. In kind it is cell-based, Mycobacterium abscessus complex. The settings on record: for Fold Change: MIC alone vs MIC with PAAG 128 μg/mL; for MIC: Mycobacteroides abscessus. The protocol:
as §1

For experiment [7], the system named is M. gordonae NTM 0274. The experiment can be described thus: MIC of CF NTM clinical isolates. Particulars: for CLSI clinical breakpoint category: NTM 0274; for MIC: Mycobacterium gordonae, NTM0274, M. gordonae NTM 0274, read-out: MIC. In kind it is cell-based.
Experiment [8] has as its system M. abscessus subsp. abscessus NTM 0079. The experiment can be described thus: MIC of CF NTM clinical isolates. In kind it is cell-based. Particulars: for CLSI clinical breakpoint category: NTM 0079; for MIC: Mycobacteroides abscessus, M. abscessus subsp. abscessus NTM 0079, read-out: MIC.
The test system of experiment [9] is MAC biofilm. The experiment can be described thus: 2D MBEC checkerboard assay, antibiotic potentiation in biofilm. The settings on record: for Fold Change: MBEC alone vs MBEC with PAAG 8 μg/mL; for MBEC: antibiotic alone; for MBEC with PAAG: antibiotic with PAAG at half of its MBEC (8 μg/mL). Format: cell-based, Mycobacterium avium complex. The protocol: as §1
In addition, PAAG potentiates antibiotics against NTM in biofilms as measured with minimum biofilm eradication concentration (MBEC) (Table 3).

Experiment [10] deals with MAC NTM 0260. The experiment can be described thus: 2D checkerboard analysis, antibiotic MIC with PAAG. Format: cell-based, Mycobacterium avium complex. Particulars: for Fold Change: MIC alone vs MIC with PAAG 8 μg/mL; for MIC: Mycobacterium avium. The procedure: as §1
Setting [11] is: antibiotic alone, read-out: MIC.
Where [12] appears, read: antibiotic with PAAG at half of its MIC (128 μg/mL), read-out: MIC with PAAG.
Where [13] appears, read: antibiotic alone, MAC NTM 0260, read-out: MIC.

Regarding `NCC[C@H](O)C(=O)N[C@@H]1C[C@H](N)[C@@H](O[C@H]2O[C@H](CN)[C@@H](O)[C@H](O)[C@H]2O)[C@H](O)[C@H]1O[C@H]1O[C@H](CO)[C@@H](O)[C@H](N)[C@H]1O` [Amikacin], the “CLSI clinical breakpoint category” value in experiment [1] (Amikacin breakpoints) is on record as “(S) (≤16 μg/mL (S))”; in experiment [2] (Amikacin breakpoints), “(R) (≥64 μg/mL (R) for Amikacin)”; in [3] (Amikacin breakpoints), “(S) (≤16 μg/mL (S))”; in experiment [4] (Amikacin breakpoints), “(S) (≤16 μg/mL (S))”; in experiment [7] (Amikacin breakpoints), “(S) (≤16 μg/mL (S))”; in [8] (Amikacin breakpoints) it was “(R) (≥64 μg/mL (R) for Amikacin)”. Also, the MIC came to 2 µg/mL in experiment [1]; 8 µg/mL in experiment [2]; 2 µg/mL in [3]; 4 µg/mL in experiment [4]; 32 µg/mL in [6] (setting [11]); 0.06 µg/mL in [6] (setting [12]). For the same compound, the figures for the MIC in experiment [7] and in [8] were < 0.0625 µg/mL and 8 µg/mL, respectively. The “Fold Change” value in [5] was >512; in experiment [6], 533. For the same compound, the MBEC in [5] was >1024 µg/mL. In addition, the “MBEC with PAAG” value in experiment [5] came to 2 µg/mL.

Turning to `CC[C@H]1OC(=O)[C@H](C)[C@@H](O[C@H]2C[C@@](C)(OC)[C@@H](O)[C@H](C)O2)[C@H](C)[C@@H](O[C@@H]2O[C@H](C)C[C@H](N(C)C)[C@H]2O)[C@](C)(O)C[C@@H](C)CN(C)[C@H](C)[C@@H](O)[C@]1(C)O` [Azithromycin], the “Fold Change” value in experiment [9] turned out to be 8; in [10] (MAC NTM 0260), 4. The MBEC in [9] is 8 µg/mL. Also, the “MBEC with PAAG” value in experiment [9] was found to be 1 µg/mL. The “CLSI clinical breakpoint category” value in [1] (Azithromycin breakpoints) is “(I) (4 μg/mL (I))”; in experiment [2] (Azithromycin breakpoints), “(R) (≥8 μg/mL (R))”; in experiment [3] (Azithromycin breakpoints), “(I) (4 μg/mL (I))”; in [4] (Azithromycin breakpoints), “(R) (≥8 μg/mL (R))”; in experiment [7] (Azithromycin breakpoints), “(I) (4 μg/mL (I))”; in experiment [8] (Azithromycin breakpoints), “(R) (≥8 μg/mL (R))”. Also, the MIC is 2 µg/mL in experiment [1]; 32 µg/mL in [2]; 2 µg/mL in [3]; 2 µg/mL in [10] (setting [13]); 0.5 µg/mL in experiment [10] (read-out: MIC with PAAG); 32 µg/mL in experiment [4]. The MIC was determined as 2 µg/mL in [7] and 32 µg/mL in [8].

`O=C(O)c1cn(C2CC2)c2cc(N3CCNCC3)c(F)cc2c1=O` [Ciprofloxacin]: the MBEC in experiment [5] was >1024 µg/mL.

Turning to `CC[C@@H](CO)NCCN[C@@H](CC)CO` [Ethambutol], the “Fold Change” value in experiment [9] is >32; in [10] (MAC NTM 0260), 2; in experiment [5], >512; in experiment [6] it was 128. For the same compound, the MBEC in [9] is >8 µg/mL; in experiment [5], >1024 µg/mL. Moreover, the “MBEC with PAAG” value in experiment [9] is <0.25 µg/mL; in experiment [5] it was 2 µg/mL. The “CLSI clinical breakpoint category” value in [1] (Ethambutol breakpoints), in experiment [2] (Ethambutol breakpoints), in experiment [3] (Ethambutol breakpoints), in experiment [4] (Ethambutol breakpoints), in [7] (Ethambutol breakpoints) and in experiment [8] (Ethambutol breakpoints) was “R (≥2 μg/mL (R) for Ethambutol)” each time. Also, the MIC was determined as 2 µg/mL in experiment [1]; 32 µg/mL in experiment [2]; 2 µg/mL in experiment [3]; 2 µg/mL in experiment [10] (setting [13]); 1 µg/mL in experiment [10] (read-out: MIC with PAAG); 8 µg/mL in [4]. Moreover, the MIC was determined as 32 µg/mL in experiment [6] (setting [11]), 0.25 µg/mL in [6] (setting [12]), 2 µg/mL in experiment [7] and 32 µg/mL in experiment [8].

On to `CO[C@H]1/C=C/O[C@@]2(C)Oc3c(C)c(O)c4c(O)c(c(/C=N/N5CCN(C)CC5)c(O)c4c3C2=O)NC(=O)/C(C)=C\C=C\[C@H](C)[C@H](O)[C@@H](C)[C@@H](O)[C@@H](C)[C@H](OC(C)=O)[C@@H]1C` [Rifampicin], for which the “Fold Change” value is reported as >32 in experiment [9], 4 in experiment [10] (MAC NTM 0260), >512 in experiment [5] and 21 in experiment [6]. Moreover, the MBEC in [9] is 8 µg/mL; in experiment [5], >1024 µg/mL. Further, the “MBEC with PAAG” value in experiment [9] was <0.25 µg/mL; in [5], 2 µg/mL. In addition, the MIC was 4 µg/mL in [1]; 2 µg/mL in experiment [2]; 4 µg/mL in experiment [3]; 4 µg/mL in [10] (setting [13]); 1 µg/mL in experiment [10] (read-out: MIC with PAAG); 8 µg/mL in experiment [4]. Also, the MIC in experiment [6] (setting [11]) was 2 µg/mL; in experiment [6] (setting [12]), 0.06 µg/mL; in experiment [7], 2 µg/mL; in experiment [8], 2 µg/mL. For the same compound, the “CLSI clinical breakpoint category” value in experiment [1] (Rifampicin breakpoints), in [2] (Rifampicin breakpoints), in [3] (Rifampicin breakpoints), in [4] (Rifampicin breakpoints), in [7] (Rifampicin breakpoints) and in [8] (Rifampicin breakpoints) was “R (≥1 μg/mL (R) for Rifampicin)” in each case.

The term MIC denotes the smallest concentration in the dilution series that meets the test's criterion for growth inhibition.
